{"source": "patent US8771983B2", "about": "“Method and kit for expressing protein under regulation of the expression from repeated sequence formed by gene amplification, and transformant” (National University of Corporation Hiroshima University, priority 2004, dated 2014)", "test_system": "expression of d2EGFP in Tet-ON cells (COLO 320DM) transfected with pSFVdhfr/d2EGFP", "test": "Level of expression of d2EGFP by cell sorter in HSR and DM clones of Tet-ON cells with 5-aza (Example 7)", "assay_type": "cell-based, human", "details": "1 week, Doxycycline 1 μg/ml", "procedure": "Fluorescence intensity of these cells were measured by using a cell sorter. The measurement was carried out by sorting 20,000 cells by setting living cells at a gate. The cell sorter used was made by Becton Dickinson, and operated under conditions as described in the manual attached thereto.\nIn this method for detecting the fluorescence intensity, detection limit was 1, and all fluorescence intensities of 1 or less would be detected as 1. In view of this, a product of a ratio (cell %) of cells of fluorescence intensities of 2 or more in all living cells (10,000 cells) and an average of the fluorescence intensities of the cells having fluorescence intensities of 2 or more was calculated out for each experimental plot. This product is referred to as “accumulated fluorescence intensity” hereinafter and in later Examples and shown in boxed letter in the figures.\nBy lipofection, the pTet-ON plasmid (Clontech Laboratories Inc.) having Tet-ON gene encoding a transcription activating factor (Tet-ON protein) for promoting TRE-promoter was transfected into human colon cancer COLO 320DM. Transformed cells (hereinafter referred to as “Tet-ON cells”) which stably expressed Tet-ON protein, were selected with Hygromycin.\nNext, the pSFVdhfr/d2EGFP plasmid was transfected into the Tet-ON cells by lipofection. The cells thus obtained were selected with 5 μg/ml of Blasticidin for approximately 3 weeks, thereby obtaining a polyclonal population of the stable transformed cells.\nThe expression of d2EGFP was induced in the polyclonal population by activating TRE-promoter by adding 5 μg/ml of Doxycycline (Clontech Laboratories Inc.) in the medium. FIG. 9 illustrates a result of analysis of the level of the expression of d2EGFP in this case by using a cell sorter. In FIG. 9, the value in parenthesis is an average of fluorescence intensities (i.e., average fluorescence intensity), and boxed value is an accumulated fluorescence intensity. Based on the result of FIG. 9, it was confirmed that the polyclonal population was a population for expressing d2EGFP (average fluorescence intensity: 6.25, accumulated fluorescence intensity: 536).\nFrom the polyclonal population, given 30 clones were obtained by a limiting dilution method that was carried out by inoculating a clone to 6 well plates with such a low cell concentration of 30 cells/ml, and incubating the plates for 10 days to 2 weeks thereby obtaining colonies thereon.\nFrom among the clones, 4 clones having high levels of expression of d2EGFP (Clone 4, Clone 5, Clone 6, and Clone 9) were selected by fluorescence microscopic observation. Mitotic chromosome samples of the 4 clones were prepared. By FISH method, detection for a base sequence derived from the transfected pSFVdhfr/d2EGFP plasmid was carried out. The preparation of mitotic chromosome samples and the FISH method were carried out as described in Shimizu, N., Kanda, T., and Wahl, G. M. Selective capture of acentric fragments by micronuclei provides a rapid method of purifying extrachromosomally amplified DNA. Nature Genet., 12: 65-71, 1996.\nFor 4 clones, induction with Doxycycline (Clontech Laboratories Inc.; 1 μg/ml) was carried out and 5-aza (0 μM, 1 μM or 3 μM) was added in the medium. After 1 week culturing, the level of expression of d2EGFP in each clone was analyzed by using a cell sorter.", "key": {"[1]": {"details": "clone 4 (HSR), 1 μM of 5-aza in the medium"}, "[2]": {"details": "clone 4 (HSR), 3 μM of 5-aza in the medium"}, "[3]": {"details": "clone 5 (HSR), 1 μM of 5-aza in the medium"}, "[4]": {"details": "clone 5 (HSR), 3 μM of 5-aza in the medium"}, "[5]": {"details": "clone 6 (HSR), 1 μM of 5-aza in the medium"}, "[6]": {"details": "clone 6 (HSR), 3 μM of 5-aza in the medium"}, "[7]": {"details": "clone 9 (DM), 1 μM of 5-aza in the medium"}, "[8]": {"details": "clone 9 (DM), 3 μM of 5-aza in the medium"}}, "data": [{"compound": "Nc1ncn([C@H]2C[C@H](O)[C@@H](CO)O2)c(=O)n1", "note": "[5-aza, 5-aza-2′-deoxycytidine]", "values": [{"measurement": "accumulate fluorescence intensity", "setting": "[1]", "result": 453}, {"measurement": "average fluorescence intensity", "setting": "[1]", "result": 5.46}, {"measurement": "accumulate fluorescence intensity", "setting": "[2]", "result": 2300}, {"measurement": "average fluorescence intensity", "setting": "[2]", "result": 23.76}, {"measurement": "accumulate fluorescence intensity", "setting": "[3]", "result": 126}, {"measurement": "average fluorescence intensity", "setting": "[3]", "result": 2.23}, {"measurement": "accumulate fluorescence intensity", "setting": "[4]", "result": 962}, {"measurement": "average fluorescence intensity", "setting": "[4]", "result": 10.44}, {"measurement": "accumulate fluorescence intensity", "setting": "[5]", "result": 111}, {"measurement": "average fluorescence intensity", "setting": "[5]", "result": 2.09}, {"measurement": "accumulate fluorescence intensity", "setting": "[6]", "result": 1000}, {"measurement": "average fluorescence intensity", "setting": "[6]", "result": 10.87}, {"measurement": "accumulate fluorescence intensity", "setting": "[7]", "result": 13200}, {"measurement": "average fluorescence intensity", "setting": "[7]", "result": 131.86}, {"measurement": "accumulate fluorescence intensity", "setting": "[8]", "result": 24900}, {"measurement": "average fluorescence intensity", "setting": "[8]", "result": 248.60}]}]}
